Reference: patent US20060127400A1, “Activation of regulatory T cells by alpha-melanocyte stimulating hormone” (THE SCHEPENS EYE RESEARCH INSTITUTE, INC., priority 1999, published 2006)
No end group written: not given here.

System: CD4+ T cells
Assay: flow cytometry of intracellular IFN-γ and IL-4 in TCR-stimulated primed T cells
Assay type: cell-based, mouse (BALB/c)
Details: α-MSH 30 pg/ml, anti-CD3, 24 h
Description: Flow Cytometry. For immunostaining and flow cytometry, T cells (2×10^6 cells) were obtained from 24 hour cultures of enriched primed T cells TCR-stimulated in the presence of α-MSH as described above. The cells were centrifuged and washed once in 400 μl of brefeldin/PBS buffer (10 mM PBS, 10 μg/ml brefeldin A). The cells were resuspended in 100 μl of PBS/brefeldin and 100 μl of 4% paraformaldehyde/PBS fixing buffer. The cells were incubate at room temperature for 20 minutes with gentle agitation and washed once with 200 μl of brefeldin/PBS, centrifuged, and resuspended in 50 μl of PBS/saponin (10 mM PBS, 1% BSA, 0.1% Na Azide, 0.5% Saponin) and incubated 10 minutes at room temperature. To the cell suspensions 2 μg of FITC-conjugated anti-cytokine antibody (anti-IL-4 or -IFN-γ) or FITC-isotype control was added. […] The stained cells were analyzed by a Coulter Epics flow cytometer calibrated for two color fluorescence, and presented were the fluorescence of blast (proliferating) cells in two dimensions.
To further examine α-MSH suppression of IFN-γ production by T cells, the frequency of IFN-γ producing T cells activated in the presence of α-MSH was assayed by flow cytometry. […] The stained cells were analyzed by two-color flow cytometry gating on the blastogenic, proliferating T cells. […] Percent of analyzed cell population is given for each quadrant in the lower right-hand of each histogram. […]

Substance: α-melanocyte stimulating hormone (SYSMEHFRWGKPV; not fully specified; ends and bridges not checked; UniProt P01189 138-150, looked up) [α-MSH, synthetic α-MSH (Peninsula Laboratories); thirteen-amino acid neuropeptide derived from POMC]
- frequency of IFN-γ positive cells, intracellular IFN-γ staining in CD4+ T cells: substantially shifted toward lower levels
- intracellular IL-4 staining in CD4+ T cells: shift to higher levels
